Like-named read-outs stand apart in the source and are kept apart here.
Tests used:
Nicotiana benthamiana = assay: Test for evaluating growth promotion under low-temperature stress by hydroponics of Nicotiana benthamiana (Test Examples 4-6); type: in vivo; details: read-out: value of a relative leaf area (equation (1)); for relative green leaf area after low-temperature stress at 10 ppm: compound at 10 ppm; for relative green leaf area after low-temperature stress at 0.1 ppm: compound at 0.1 ppm
Procedure: A DMSO solution, which contained one of the compounds 5, 14, 22, 23, 24, 25, 26, 28, 30, 31, 32, 33, 34, 35, 38, 39 and 40 of the present invention at a concentration of 10,000 ppm, was prepared. The DMSO solution of the compound of the present invention was added at a volume ratio of 1/1,000 to the Murashige•Scoog medium of a ½-fold concentration (a medium containing 2.3 g of mixed salts (manufactured by Wako Pure Chemical Industries, Ltd.), 200 mg of Myo-inositol (manufactured by Sigma-Aldrich Co. LLC.), 2 mg of nicotinic acid (manufactured by Wako Pure Chemical Industries, Ltd.), 2 mg of pyridoxine hydrochloride (manufactured by Wako Pure Chemical Industries, Ltd.), 20 mg of thiamine hydrochloride (manufactured by Wako Pure Chemical Industries, Ltd.), 20 g of sucrose (manufactured by Wako Pure Chemical Industries, Ltd.), and 1 g of MES (manufactured by DOJINDO LABORATORIES) per 1 L of water and having pH adjusted to 5.8), thereby preparing a medium containing the compound of the present invention at a concentration of 10 ppm.
Seeds of Nicotiana benthamiana were seeded in the 5 μL of the medium and cultured overnight at 22° C. Thereafter, 45 μL of the medium containing the compound of the present invention at a concentration of 10 ppm was added thereto, and the seeds are cultivated for 7 days at 22° C., an illuminance of 4,000 lux, and a day length of 16 hours, thereby the nursery plants raised from the Nicotiana benthamiana were treated with the compound.
Moreover, instead of the above medium a test plot, which was obtained by performing the same treatment by using a medium prepared by adding DMSO to the Murashige•Scoog medium of ½-fold concentration at a volume ratio of 1/1,000, was used as a control plot not treated with the compound.
The nursery plants of the Nicotiana benthamiana treated with the compound were subjected to low-temperature treatment by being cultivated for 7 days at 1.5±1.0° C., an illuminance of 2,000 lux, and a day length of 16 hours.
The nursery plants of the Nicotiana benthamiana having undergone the low-temperature stress treatment were cultivated for 3 days at 22° C., an illuminance of 4,000 lux, and a day length of 16 hours. Thereafter, the area of green leaf was quantified by Scanalyzer HTS (manufactured by LemnaTec GmbH). Moreover, the value of the control plot not treated with the compound that had not yet been subjected to the low-temperature stress treatment was measured in the same manner. A value of a relative leaf area was calculated based on the following equation (1), and if the value of a relative leaf area was 5 or greater, the compound was evaluated to have a mitigating effect. As a result of the evaluation, it was confirmed that when the plant was treated with one of the compounds 5, 14, 22, 23, 24, 25, 26, 28, 30, 31, 32, 33, 34, 35, 38, 39 and 40 of the present invention at 10 ppm, the value of a relative leaf area was 5 or greater, compared to the area of green leaf of the control plot not treated with compound. Accordingly, it was confirmed that the treatment using the compound of the present invention brings about a growth promotion effect. Relative leaf area=100*(a green area of a plot treated with the compound of the present invention−a green area of a control plot not treated with the compound of the present invention)/(a green area of a control plot not treated with the compound of the present invention that has not yet been subjected to low-temperature stress treatment−a green area of a control plot not treated with the compound of the present invention) Equation (1): […]
A DMSO solution, which contained one of the compounds 6, 7, 8, 11, 12, 15, 19, 23, 24, 25, 28, 30, 31, 33, 34, 36, 37, 38 and 39 of the present invention at a concentration of 1,000 ppm, was prepared. […]

[1] = test system: Rice (Variety: Nipponbare); assay: Test for evaluating promotion of root growth by hydroponics of rice (Test Examples 1-3); type: in vivo
Procedure: Rice (Variety: Nipponbare)
(§1) A DMSO solution, which contained one of the compounds 14, 18, 21, 23, 26, 28, 29, 30, 35, 36, 37, 39 and 40 of the present invention at a concentration of 100,000 ppm, was added to Hoagland hydroponic solution (Hoagland and Arnon, California Agricultural Experiment Station 1950 Circular 347 pp. 34) of ¼-fold concentration at a volume ratio of 1/10,000. In this manner, hydroponic solutions containing one of the compounds 14, 18, 21, 23, 26, 28, 29, 30, 35, 36, 37, 39 and 40 of the present invention at 10 ppm were prepared respectively. As an untreated control plot, a hydroponic solution obtained by adding DMSO to Hoagland hydroponic solution of ¼-fold concentration at a volume ratio of 1/10,000 was used.
(§2) Rice seeds were soaked in a 1% aqueous sodium hypochlorite solution for 10 minutes, then soaked in a 70% ethanol solution for surface sterilization, and then washed with distilled water. The sterilized seeds were soaked in a hydroponic solution containing the test compound described above at 10 ppm and incubated in a dark place for 3 days at 28° C. to perform treatment for hastening germination.
(§3) Thereafter, 30 ml of hydroponic solution containing the test compound at 10 ppm was dispensed in a plastic tube (diameter of 20 mm×height of 113 mm) of which the side was covered with cardboard to block light. A float prepared using a styrene board and vinyl mesh was floated, and the rice seeds that had undergone the treatment for hastening germination were placed on the float on the surface of the hydroponic solution. The seeds were cultivated for 3 days at 26° C., an illuminance of 4,000 lux of the top surface of the tube, a humidity of 50%, and a day length of 16 hours.
The nursery plants of rice obtained after cultivating were measured in terms of the length of seminal root by using WinRHIZO system (manufactured by Regent Instruments Inc). For each test plot, an average of the measured values of the seminal root of 4 or 5 individuals were determined.
as §1, with “compounds 7, 8, 9, 10, 12, 17, 20,” for “compounds 14, 18,”, “21, 25, 27,” for “21, 23, 26,”, “30, 34,” for “30,”, “37, 38,” for “37,”, “of 10,000” for “of 100,000”, “at 1” for “at 10”
as §2, with “at 1” for “at 10”
as §3, with “1” for “10”
The nursery plants of rice obtained after cultivation were measured in terms of the length of seminal root by using WinRHIZO system (manufactured by Regent Instruments Inc). […]

[2] = 7 days at 1.5±1.0° C. low-temperature stress, then 3 days at 22° C., green leaf area vs untreated control
[3] = compound at 1 ppm, 7 days at 1.5±1.0° C. low-temperature stress, then 3 days at 22° C., green leaf area vs untreated control

Compound	relative green leaf area after low-temperature stress at 1 ppm (Nicotiana benthamiana)	length of seminal root compared with the untreated control plot (in words) ([1]; 10 ppm)	relative green leaf area after low-temperature stress at 10 ppm (Nicotiana benthamiana; [2])	length of seminal root compared with the untreated control plot (in words) ([1]; 0.1 ppm)	relative green leaf area after low-temperature stress at 1 ppm (Nicotiana benthamiana; [3])	length of seminal root compared with the untreated control plot (in words) ([1]; 1 ppm)	relative green leaf area after low-temperature stress at 0.1 ppm (Nicotiana benthamiana; [2])
NC(=O)c1cccc2cc(C(F)(F)F)sc12 [Compound 11, 2-trifluoromethylbenzo[b]thiophene-7-carboxamide]	≥ 5%	–	–	–	–	–	–
COC(=O)c1csc2ccc(C(F)(F)F)cc12 [Compound 14, methyl 5-trifluoromethylbenzo[b]thiophene-3-carboxylate]	–	obviously longer	≥ 5%	–	–	–	–
COC(=O)c1c(C(F)(F)F)sc2c(C(=O)OC)cccc12 [Compound 18, dimethyl 2-trifluoromethylbenzo[b]thiophene-3,7-dicarboxylate]	–	obviously longer	–	–	–	–	–
O=C(O)c1cccc2sc(C(F)(F)F)cc12 [Compound 1, 2-trifluoromethylbenzo[b]thiophene-4-carboxylic acid]	–	–	–	obviously longer	–	–	–
NC(=O)c1c(C(F)(F)F)sc2ccccc12 [Compound 23]	–	obviously longer	≥ 5%	–	≥ 5%	–	–
CNC(=O)c1csc2c(C(F)(F)F)cccc12 [Compound 38]	–	–	≥ 5%	obviously longer	≥ 5%	obviously longer	–
COC(=O)c1csc2cc(C(F)(F)F)ccc12 [Compound 28]	–	obviously longer	≥ 5%	obviously longer	≥ 5%	obviously longer	≥ 5%
O=C(O)c1csc2c(C(F)(F)F)cccc12 [Compound 34]	–	–	≥ 5%	obviously longer	≥ 5%	obviously longer	≥ 5%
O=C(O)c1cccc2ccsc12 [Compound 6, benzo[b]thiophene-7-carboxylic acid]	–	–	–	obviously longer	≥ 5%	–	–
O=C(Nc1ccccc1)c1csc2c(C(F)(F)F)cccc12 [Compound 39]	–	obviously longer	≥ 5%	obviously longer	≥ 5%	obviously longer	–
CCOC(=O)c1csc2c(C(F)(F)F)cccc12 [Compound 36]	–	obviously longer	–	obviously longer	≥ 5%	obviously longer	≥ 5%
CCOC(=O)c1c(C(F)(F)F)sc2ccccc12 [Compound 22]	–	–	≥ 5%	–	–	–	≥ 5%
COC(=O)c1cccc2sc(C(F)(F)F)cc12 [Compound 2, methyl 2-trifluoromethylbenzo[b]thiophene-4-carboxylate]	–	–	–	–	–	–	≥ 5%
O=C(NCc1ccccc1)c1csc2cc(C(F)(F)F)ccc12 [Compound 33]	–	–	≥ 5%	–	≥ 5%	–	≥ 5%
O=C(Nc1ccccc1)c1csc2cc(C(F)(F)F)ccc12 [Compound 32]	–	–	≥ 5%	–	–	–	≥ 5%
CNC(=O)c1c(C(F)(F)F)sc2ccccc12 [Compound 24]	–	–	≥ 5%	–	≥ 5%	–	–
NC(=O)c1c(C(F)(F)F)sc2ccccc12 [Compound 17, 2-trifluoromethylbenzo[b]thiophene-3-carboxamide]	–	–	–	–	–	obviously longer	–
COC(=O)c1ccc2sccc2c1 [Compound 5, methyl benzo[b]thiophene-5-carboxylate]	–	–	≥ 5%	–	–	–	–
O=C(O)c1csc2cc(C(F)(F)F)ccc12 [Compound 27]	–	–	–	obviously longer	–	obviously longer	–
